Biological target: human SSTR4 (Homo sapiens, UniProt P31391)
Assay: Evaluation of agonist activities using human SSTR4-stably expressing cells (aequorin luminescence)
Type: cell-based
Design: expressed in transfected cells; host or cells: HEK293
Conditions: for EC50: luminescence signal, 1 μmol/L somatostatin taken as 100%; for SSTR4 agonist activity compared with other compounds: Tables 25 to 27
Protocol: Evaluation of Agonist Activities Using Cells that stably expressing human-derived SSTR4 (human SSTR4-stably expressing cells)
(1) Human SSTR4-Stably Expressing Cells
Human SSTR4-stably expressing cells were prepared, and cultured. Specifically, HEK293 cells, human kidney-derived cells, were used as host cells. By introducing pcDNA3.1 (cat. No. V79020, invitrogen, Carlsbad, Calif., USA) to which human SSTR gene was inserted into HEK293 cells, human SSTR4-stably expressing cell line was obtained. For selection, G418 (cat. No. 16513-84, Nacalai tesque, Japan) was used.
As the culture medium, D-MEM medium (cat. No. 11995, GIBCO, USA), containing 10% FBS and 200 μg/mL G418, was used, the culture was performed in a 225 cm^2 flask (cat. No. 11-006-010, Iwaki, Japan).
At about 80% confluence, the cells were harvested by treating with 20-fold diluted 0.25% Trypsin-EDTA (cat. No. 35554-64, Nacalai, tesque, Japan). The harvested cells were prepared at a reaction medium composed of Hanks Buffer (cat. No. 14065-056, invitrogen, Carlsbad, Calif., USA)/20 mM Hepes (cat. No. 15630-080, invitrogen, Carlsbad, Calif., USA), and 0.1% BSA (cat. No. A7906, Sigma Aldrich, USA) to 70000 cells/mL. Gα16 and apoaequorin were transiently introduced to the harvested cells, and the cells were seeded to a 384 well plate (cat. No. 781090, Greiner, Germany) at about 2000 cells/30 μL/well. On the next day of cell seeding, Coelenterazine H (cat. No. S2011, Promega, USA) was added to each well (10 μL/well) to make a final concentration of 0.5 μmol/L, and the plate was centrifuged. Then, the plate was left at room temperature for 4 hours in shaded state.
(2) Preparation of Test Compounds
DMSO solution of each test compound having 1000-fold larger concentration than the final concentration was prepared. The DMSO solutions were made to have 10-fold concentration than the final concentration with Hanks/20 mmol/L Hepes/0.1% BSA.
(3) Evaluation of Agonist Activity
For detection of luminescence signal due to SSTR4-stimulation, FDSS7000 (manufactured by Hamamatsu Photonics K.K.) was used. To plates having cells and the luminescence substrate, solutions of test compounds were added, then each luminescence signal was measured for 90 seconds, and each relative luminescence unit (RLU) was calculated. Based on luminescence signal from the wells to which a 1 μmol/L somatostatin solution was added taken as 100%, agonist activity of each test compound was evaluated.

Chain of human SSTR4 (P31391 whole entry): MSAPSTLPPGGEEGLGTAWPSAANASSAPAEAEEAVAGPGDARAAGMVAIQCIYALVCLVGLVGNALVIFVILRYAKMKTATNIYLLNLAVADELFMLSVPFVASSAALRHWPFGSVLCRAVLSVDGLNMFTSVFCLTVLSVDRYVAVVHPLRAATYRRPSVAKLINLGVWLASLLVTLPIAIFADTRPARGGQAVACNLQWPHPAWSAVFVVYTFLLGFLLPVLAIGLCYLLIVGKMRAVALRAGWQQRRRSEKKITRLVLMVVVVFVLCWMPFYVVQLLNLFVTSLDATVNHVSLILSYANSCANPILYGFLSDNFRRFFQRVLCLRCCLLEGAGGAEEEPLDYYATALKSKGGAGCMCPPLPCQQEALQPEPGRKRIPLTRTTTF

EC50 [nM] | SSTR4 agonist activity compared with other compounds | Compound
43.3 | – | CN1CCCC(C(=O)NC2(c3cc(Cl)cc(Cl)c3)CCOCC2)C1 (stereo not drawn) [Example 9, N-[4-(3,5-dichlorophenyl)tetrahydro-2H-pyran-4-yl]-1-methylpiperidine-3-carboxamide]
> 100 | – | CC(C)(NC(=O)C1CCCN(CCF)C1)c1cccc2ccccc12 (stereo not drawn) [Example 112]
73.3 | – | CN1CCC[C@H](C(=O)NC(C)(C)c2cccc(F)c2)C1 [Example 75]
> 100 | – | CN1CCC[C@H](C(=O)NC(C)(C)c2ccccc2)C1 [Example 39]
3.1 | – | CC(C)(NC(=O)[C@H]1CCCN(CCF)C1)c1cccc2ccccc12 [Example 113]
43.5 | – | CN1CC[C@H](C(=O)NC(C)(C)c2ccccc2Cl)C1 [Example 79]
4.8 | – | CN1CCC[C@H](C(=O)NC(C)(C)c2ccccc2OC(F)(F)F)C1 [Example 60, (3S)—N-{2-[2-(trifluoromethoxy)phenyl]propane-2-yl}-1-methylpiperidine-3-carboxamide]
31.4 | – | COC1CC(C(=O)NC(C)(C)c2cccc(Cl)c2Cl)CN(C)C1 (stereo not drawn) [Example 103]
8.9 | – | Cc1cccc(C(C)(C)NC(=O)C2CCCN(C)C2)c1C (stereo not drawn) [Example 8]
> 100 | – | CN1CCC(C(=O)NC(C)(C)c2ccccc2)C1 (stereo not drawn) [Example 78]
22.7 | – | CCC(C)N1CCCC(C(=O)NC(C)(C)c2cccc3ccccc23)C1 (stereo not drawn) [Example 120]
1.5 | – | CN1CCC[C@H](C(=O)NC(C)(C)c2ccccc2Br)C1 [Example 67, (3S)—N-[2-(2-bromophenyl)propane-2-yl]-1-methylpiperidine-3-carboxamide]
3.5 | – | CC(C)N1CCCC(C(=O)NC(C)(C)c2cccc3ccccc23)C1 (stereo not drawn) [Example 119]
11.7 | – | C[C@@H]1CC[C@H](C(=O)NC(C)(C)c2cccc(Cl)c2Cl)CN1C (relative stereo) [Example 96]
5.3 | – | Cc1cc(Cl)cc(C(C)(C)NC(=O)[C@H]2CCCN(C)C2)c1 [Example 29, (3S)—N-[2-(3-chloro-5-methylphenyl)propane-2-yl]-1-methylpiperidine-3-carboxamide]
> 100 | – | COc1cccc(C(C)(C)NC(=O)[C@H]2CCCN(C)C2)c1 [Example 70]
20.5 | – | CN1CCC[C@H](C(=O)NC(C)(C)c2ccccc2OC(F)F)C1 [Example 66]
11.2 | – | CC[C@@H]1CC[C@@H](C(=O)NC(C)(C)c2cccc3ccccc23)CN1C (relative stereo) [Example 89]
> 100 | – | CN1CCC[C@H](C(=O)NC(C)(C)c2ccc(F)cc2)C1 [Example 69]

EC50 [nM] | SSTR4 agonist activity compared with other compounds | Compound
21.6 | – | CN1CCC[C@H](C(=O)NC(C)(C)c2cccc(Cl)c2F)C1 [Example 46]
1.5 | stronger SSTR4 agonist activity | C[C@@H]1[C@@H](C(=O)NC(C)(C)c2cccc3ccccc23)CCCN1C (relative stereo) [Example 85]
> 100 | – | CN1CC[C@@H](C(=O)NC(C)(C)c2ccccc2Cl)C1 [Example 80]
3.2 | – | CN1CC(F)CC(C(=O)NC(C)(C)c2cccc3ccccc23)C1 (stereo not drawn) [Example 92]
13 | – | Cc1ccccc1C(C)(C)NC(=O)[C@H]1CCCN(C)C1 [Example 43, (3S)—N-[2-(2-methylphenyl)propane-2-yl]-1-methylpiperidine-3-carboxamide]
2.2 | stronger SSTR4 agonist activity | Cc1cccc(C(C)(C)NC(=O)[C@H]2CCCN(C)C2)c1Cl [Example 26, (3S)—N-[2-(2-chloro-3-methylphenyl)propane-2-yl]-1-methylpiperidine-3-carboxamide]
> 100 | – | CN1CCC[C@H](C(=O)NC(C)(C)c2ccc(S(C)(=O)=O)cc2)C1 [Example 63]
19.8 | – | C[C@@H]1[C@H](C(=O)NC(C)(C)c2cccc3ccccc23)CCCN1C (relative stereo) [Example 84]
1.7 | stronger SSTR4 agonist activity | CCN1CCCC(C(=O)NC(C)(C)c2cccc3ccccc23)C1 (stereo not drawn) [Example 116]
28.8 | – | CN1CC(C(=O)NC(C)(C)c2cccc3ccccc23)CC(F)(F)C1 (stereo not drawn) [Example 94]
7.8 | – | C[C@@H]1CC[C@@H](C(=O)NC(C)(C)c2cccc(Cl)c2Cl)CN1C (relative stereo) [Example 95]
6.2 | – | CSc1ccccc1C(C)(C)NC(=O)[C@H]1CCCN(C)C1 [Example 65]
6.9 | – | CCN1CCCC(C(=O)NC(C)(C)c2cccc3ccccc23)C1 (stereo not drawn) [Example 111]
8 | – | Cc1ccc(C(C)(C)NC(=O)[C@H]2CCCN(C)C2)cc1Cl [Example 47, (3S)—N-[2-(3-chloro-4-methylphenyl)propane-2-yl]-1-methylpiperidine-3-carboxamide]
2.8 | stronger SSTR4 agonist activity | CCN1CCC[C@H](C(=O)NC(C)(C)c2ccccc2Cl)C1 [Example 110, (3S)—N-[2-(2-chlorophenyl)propane-2-yl]-1-ethylpiperidine-3-carboxyamide]
85 | – | CN1CC(C(=O)NC(C)(C)c2cccc(Cl)c2Cl)CCC1(C)C (stereo not drawn) [Example 97]
> 100 | – | CN1CCC[C@H](C(=O)NC(C)(C)c2ccc(Cl)cc2-c2ccccc2)C1 [Example 36]
> 100 | – | CC(C)c1cc(Cl)ccc1C(C)(C)NC(=O)[C@H]1CCCN(C)C1 [Example 33]
1.9 | stronger SSTR4 agonist activity | CC(C)N1CCC[C@H](C(=O)NC(C)(C)c2cccc3ccccc23)C1 [Example 115, (3S)—N-[2-(naphthalene-1-yl)propane-2-yl]-1-(propane-2-yl)pyperidine-3-carboxamide]

EC50 [nM] | SSTR4 agonist activity compared with other compounds | Compound
12 | – | Cc1ccc(C)c(C(C)(C)NC(=O)[C@H]2CCCN(C)C2)c1 [Example 49]
5 | – | Cc1ccc(Cl)c(C(C)(C)NC(=O)[C@H]2CCCN(C)C2)c1 [Example 38, (3S)—N-[2-(2-chloro-5-methylphenyl)propane-2-yl]-1-methylpiperidine-3-carboxamide]
10 | – | Cc1cc(C(C)(C)NC(=O)[C@H]2CCCN(C)C2)ccc1Cl [Example 48]
11.7 | – | CC(C)N1CCC[C@H](C(=O)NC(C)(C)c2ccccc2Cl)C1 [Example 121]
1.9 | – | CCc1ccccc1C(C)(C)NC(=O)[C@H]1CCCN(C)C1 [Example 76, (3S)—N-[2-(2-ethylphenyl)propane-2-yl]-1-methylpiperidine-3-carboxamide]
14.2 | – | Cc1ccc(C(C)(C)NC(=O)C2CCCN(C)C2)cc1C (stereo not drawn) [Example 6]
8.8 | – | COc1ccccc1C(C)(C)NC(=O)[C@H]1CCCN(C)C1 [Example 53]
1.2 | stronger SSTR4 agonist activity | COc1cc(Cl)c(Cl)cc1C(C)(C)NC(=O)[C@H]1CCCN(C)C1 [Example 52]
12.8 | – | CN1CCC[C@H](C(=O)NC(C)(C)c2cccc(Cl)c2)C1 [Example 41]
1.1 | – | C[C@@H]1CC[C@@H](C(=O)NC(C)(C)c2cccc3ccccc23)CN1C (relative stereo) [Example 82]
> 100 | – | CN1CCC[C@H](C(=O)NC(C)(C)c2ccncc2)C1 [Example 58]
> 100 | – | CC(C)Cc1cc(Cl)ccc1C(C)(C)NC(=O)[C@H]1CCCN(C)C1 [Example 34]
84.9 | – | Cc1ccc(C(C)(C)NC(=O)[C@H]2CCCN(C)C2)cc1 [Example 45]
4 | – | CCc1ccc(C(C)(C)NC(=O)[C@H]2CCCN(C)C2)c(CC)c1 [Example 32, (3S)—N-[2-(2,4-diethylphenyl)propane-2-yl]-1-methylpiperidine-3-carboxamide]
81.4 | – | COC[C@@H]1CC[C@@H](C(=O)NC(C)(C)c2cccc3ccccc23)CN1C (relative stereo) [Example 104]
16.2 | – | CC1CC(C(=O)NC(C)(C)c2cccc3ccccc23)CN(C)C1 (stereo not drawn) [Example 86]
1.4 | stronger SSTR4 agonist activity | CCc1cc(Cl)ccc1C(C)(C)NC(=O)[C@H]1CCCN(C)C1 [Example 31, (3S)—N-[2-(4-chloro-2-ethylphenyl)propane-2-yl]-1-methylpiperidine-3-carboxamide]
62.7 | – | CN1CCC[C@H](C(=O)NC(C)(C)c2ccccc2F)C1 [Example 1, (3S)—N-[2-(2-fluorophenyl)propane-2-yl]-1-methylpiperidine-3-carboxyamide]

— patent US20160221948A1, “NITROGEN-CONTAINING SATURATED HETEROCYCLIC COMPOUND” (SUMITOMO CHEMICAL COMPANY, LIMITED, priority 2013, published 2016)
